Key:
Hutcheson soybean = experiment: Crop (soybean) conditions after soil treatment; format: in vivo; conditions: 57 d after treatment, C2H5CO2H 250 mg/kg soil
Description: In this study, the soil was naturally infested with four species of nematodes, two of which were deleterious and two beneficial, and observations were made of both the nematode survival and the growth of the soybean plants. Stock solutions of hydrogen cyanamide at 1.0% by weight and propionic acid at 5.0% by weight, both in water, were prepared, the hydrogen cyanamide from a phosphate-buffered 50% aqueous solution. Planting pots measuring 10 cm in diameter, each containing 1 kg of soil, were used. […] The resulting plants were then removed from the pots, the root systems were washed, and the number of plants in each pot was determined. The weights of both fresh shoots and roots were also determined as well as the shoot height and the relative health of the root system, using a subjective index. Soil samples were also collected, and the soil and roots were incubated to determine nematode populations. Treatments were arranged in randomized complete block design with seven replications per treatment, and statistical evaluation of the data was performed with analyses of variance (ANOVA) and standard regression procedures. Fischer's Least Significant Difference at p 0.05 was calculated when appropriate. The results of these tests are listed as final test results in Tables II, III, and IV, with nematode populations in the soil listed in Table II, the nematode populations in the root systems in Table III, and the plant and root parameters of the soybean shoots in Table IV.

spiral nematodes = experiment: Nematicidal activity in covered pots of naturally infested silt loam, soybean planted after 12 days; format: in vivo, Helicotylenchus dihystera; conditions: C2H5CO2H 250 mg/kg soil
Description: In this study, the soil was naturally infested with four species of nematodes, two of which were deleterious and two beneficial, and observations were made of both the nematode survival and the growth of the soybean plants.
Stock solutions of hydrogen cyanamide at 1.0% by weight and propionic acid at 5.0% by weight, both in water, were prepared, the hydrogen cyanamide from a phosphate-buffered 50% aqueous solution. Planting pots measuring 10 cm in diameter, each containing 1 kg of soil, were used. The soil was silt loam from a cotton field, pH 6.2, CEC<10 meq/100 g soil, organic matter<1.0%. The treatment chemicals were combined in various dilutions such that 100 mL of the combined dilutions contained the desired amount of each chemical for each test. The combined dilutions were then applied to the soil surface in each pot, at 100 mL of combined dilution per pot. The dilutions were selected to achieve target application rates expressed in milligrams of the treatment chemical per kilogram of soil, with 1 milligram of treatment chemical per kilogram of soil being approximately equal to 2 kilograms of the chemical per hectare of soil or 2 pounds of the chemical per acre of soil.
Immediately after the treatment chemicals were applied, each pot was covered by a thick (1.5 mil), clear, low-density polyethylene bag. After twelve days, the bags were removed and soil samples were taken from each pot for nematological analysis by the salad bowl technique of Rodriguez-Kabana, R., and M. H. Pope, Nematropica, 11: 175-186 (1981). The results of these analyses are listed in Table I as pre-plant test results. The results for the two deleterious nematodes are also shown as plots of the number of nematodes vs. the hydrogen cyanamide application rate in FIGS. 1 and 2.
After the polyethylene bags were removed, each pot was planted with Hutcheson soybean seeds at 5 seeds per pot, and the seeds were allowed to germinate and the plants to grow for 45 days. The resulting plants were then removed from the pots, the root systems were washed, and the number of plants in each pot was determined. The weights of both fresh shoots and roots were also determined as well as the shoot height and the relative health of the root system, using a subjective index. Soil samples were also collected, and the soil and roots were incubated to determine nematode populations. Treatments were arranged in randomized complete block design with seven replications per treatment, and statistical evaluation of the data was performed with analyses of variance (ANOVA) and standard regression procedures. Fischer's Least Significant Difference at p 0.05 was calculated when appropriate. The results of these tests are listed as final test results in Tables II, III, and IV, with nematode populations in the soil listed in Table II, the nematode populations in the root systems in Table III, and the plant and root parameters of the soybean shoots in Table IV.

yellow nutsedge = experiment: Herbicidal activity, phosphate-free cyanamide and propionic acid, post-emergence, uncovered pots; format: in vivo, Cyperus esculentus
Source text: (§1) The procedures in this example differed from those of Example 2, however, by the use of hydrogen cyanamide crystals free of phosphate ion to prepare the aqueous hydrogen cyanamide solution, by the use of post-emergence application, and by the omission of any covering of the pots during any part of the test. Observations were made for total weed growth, and individual observations were also made for yellow nutsedge, crabgrass, sicklepod, and momingglory. Stock solutions of hydrogen cyanamide at 1.25% by weight and propionic acid at 5.0% by weight, both in water, were prepared as before, except that the hydrogen cyanamide solution, as noted above, was prepared by dissolving hydrogen cyanamide crystals in water in the absence of phosphate ion. […] The weeds were allowed to grow for three weeks before the treatment chemicals were applied. […] Data analyses were performed in the same manner as Examples 1 and 2. Table IX lists the results in weeds per pot for all weeds, Table X for yellow nutsedge, Table XI for crabgrass, Table XII for sicklepod, and Table XIII for morningglory, all both with propionic acid alone at various application […]

all weeds = experiment: as above; format: in vivo
Source text: as §1

crabgrass = experiment: as above; format: in vivo, Digitaria sanguinalis
Source text: as §1

[1] = 6 d after treatment, C2H5CO2H 100 mg/kg soil
[2] = 6 d after treatment, C2H5CO2H 200 mg/kg soil
[3] = 6 d after treatment, C2H5CO2H 300 mg/kg soil
[4] = 6 d after treatment, C2H5CO2H 400 mg/kg soil
[5] = 6 d after treatment, C2H5CO2H 500 mg/kg soil
[6] = 13 d after treatment, C2H5CO2H 100 mg/kg soil
[7] = 13 d after treatment, C2H5CO2H 200 mg/kg soil
[8] = 13 d after treatment, C2H5CO2H 300 mg/kg soil
[9] = 13 d after treatment, C2H5CO2H 400 mg/kg soil
[10] = 13 d after treatment, C2H5CO2H 500 mg/kg soil
[11] = 20 d after treatment, C2H5CO2H 100 mg/kg soil
[12] = 20 d after treatment, C2H5CO2H 200 mg/kg soil
[13] = 20 d after treatment, C2H5CO2H 300 mg/kg soil
[14] = 20 d after treatment, C2H5CO2H 400 mg/kg soil
[15] = 20 d after treatment, C2H5CO2H 500 mg/kg soil

CCC(=O)O [C2H5CO2H, propionic acid]
Number of Plants/Pot (Hutcheson soybean; 5 seeds/pot): 3.7
Fresh Shoot Weight (Hutcheson soybean): 19.6 g
Root Condition Index (Hutcheson soybean): 2.1
Shoot Height (Hutcheson soybean): 26.9 cm
Surviving Nematodes: Spiral (spiral nematodes; 12 d after treatment, pre-plant): 47 per 100 mL of soil
Surviving Nematodes: Spiral (spiral nematodes; 57 d after treatment, 45 d after planting): 12.4 per 100 mL of soil
Surviving Nematodes in Root System: Spiral (spiral nematodes; 57 d after treatment): 25.9 Per Pot
Weeds Per Pot: Yellow Nutsedge (yellow nutsedge; [1]): 2.4
Weeds Per Pot: Yellow Nutsedge (yellow nutsedge; [2]): 4
Weeds Per Pot: Yellow Nutsedge (yellow nutsedge; [3]): 1.9
Weeds Per Pot: Yellow Nutsedge (yellow nutsedge; [4]): 3
Weeds Per Pot: Yellow Nutsedge (yellow nutsedge; [5]): 2.1
Weeds Per Pot: Yellow Nutsedge (yellow nutsedge; [6]): 3
Weeds Per Pot: Yellow Nutsedge (yellow nutsedge; [7]): 4.9
Weeds Per Pot: Yellow Nutsedge (yellow nutsedge; [8]): 3.3
Weeds Per Pot: Yellow Nutsedge (yellow nutsedge; [9]): 4.7
Weeds Per Pot: Yellow Nutsedge (yellow nutsedge; [10]): 3.9
Weeds Per Pot: Yellow Nutsedge (yellow nutsedge; [11]): 3.1
Weeds Per Pot: Yellow Nutsedge (yellow nutsedge; [12]): 5.4
Weeds Per Pot: Yellow Nutsedge (yellow nutsedge; [13]): 4.7
Weeds Per Pot: Yellow Nutsedge (yellow nutsedge; [14]): 5.3
Weeds Per Pot: Yellow Nutsedge (yellow nutsedge; [15]): 4.1
Weeds Per Pot: All Weeds (all weeds; [1]): 22.4
Weeds Per Pot: All Weeds (all weeds; [2]): 12.6
Weeds Per Pot: All Weeds (all weeds; [3]): 5.7
Weeds Per Pot: All Weeds (all weeds; [4]): 4
Weeds Per Pot: All Weeds (all weeds; [5]): 3.4
Weeds Per Pot: All Weeds (all weeds; [6]): 24.4
Weeds Per Pot: All Weeds (all weeds; [7]): 14.9
Weeds Per Pot: All Weeds (all weeds; [8]): 8.6
Weeds Per Pot: All Weeds (all weeds; [9]): 7.6
Weeds Per Pot: All Weeds (all weeds; [10]): 6.7
Weeds Per Pot: All Weeds (all weeds; [11]): 25.1
Weeds Per Pot: All Weeds (all weeds; [12]): 15.9
Weeds Per Pot: All Weeds (all weeds; [13]): 10
Weeds Per Pot: All Weeds (all weeds; [14]): 8.4
Weeds Per Pot: All Weeds (all weeds; [15]): 8
Herbicidal activity of propionic acid alone (all weeds; post-emergence, uncovered pots): demonstrated herbicidal activity on its own
Weeds Per Pot: Crabgrass (crabgrass; [1]): 9.9
Weeds Per Pot: Crabgrass (crabgrass; [2]): 5.1
Weeds Per Pot: Crabgrass (crabgrass; [3]): 3
Weeds Per Pot: Crabgrass (crabgrass; [4]): 0.6
Weeds Per Pot: Crabgrass (crabgrass; [5]): 0.6
Weeds Per Pot: Crabgrass (crabgrass; [6]): 10.6
Weeds Per Pot: Crabgrass (crabgrass; [7]): 5.4
Weeds Per Pot: Crabgrass (crabgrass; [8]): 3.9
Weeds Per Pot: Crabgrass (crabgrass; [9]): 1.3
Weeds Per Pot: Crabgrass (crabgrass; [10]): 0.7
Weeds Per Pot: Crabgrass (crabgrass; [11]): 11.6
Weeds Per Pot: Crabgrass (crabgrass; [12]): 6
Weeds Per Pot: Crabgrass (crabgrass; [13]): 3.4
Weeds Per Pot: Crabgrass (crabgrass; [14]): 1.3
Weeds Per Pot: Crabgrass (crabgrass; [15]): 1.6

Reference: patent US20070116781A1, “Hydrogen Cyanamide Pesticide Formulations” (priority 2005, published 2007)
